# Reference: patent US10351586B2, “Cytidine derivative dimers and applications thereof” (CHANGZHOU FANGYUAN PHARMACEUTICAL CO., LTD, priority 2014, dated 2019)
# Marks after values point to notes of the source that are not given here.
# What was measured:
# [1] = tested on: HCT-116 human colon cancer xenografts; assay: Tumor growth inhibition of HCT-116 human colon cancer xenografts in nude mice; type: in vivo, Balb/c nude mice; settings: for Relative tumor proliferation rate (T/C %) / Relative tumor volume (RTV) / Tumor growth inhibition rate (TGI %) / Tumor volume of HCT-116 human colon cancer xenografts: single IP injection (QD×1), D1 and D2 400 mg/kg, D3 350 mg/kg, D4 300 mg/kg; for Tumor volume of HCT-116 human colon cancer xenografts: Mean±SEM
# In short: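 HCT-116 cells grown in F-12 with 10% FBS, inoculated into nude mice at ~3×10^7 cells/mL. Tumour diameter measured three times weekly, volume as V=3/4π(D/2)^3; activity given as TGI (%) versus control and T/C (%) from relative tumour volume Vt/V0.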
# [2] = Body weight / toxicity of a single intraperitoneal injection in HCT-116 colon tumor-bearing nude mice; settings: D3 350 mg/kg, D4 300 mg/kg; for Average rate of weight change of the animals / Average weight of the animals: single IP injection (QD×1), D1 and D2 400 mg/kg; for Average weight of the animals: Mean±SEM
# [3] = D1 400 mg/kg Day 7, D2 400 mg/kg Day 9, D3 350 mg/kg Day 11, D4 300 mg/kg Day 11, single IP
compound,measurement,setting,value
"O=C(CCCC(=O)OC[C@H]1O[C@@H](n2ccc(NC(=O)OCc3ccccc3)nc2=O)C(F)(F)[C@@H]1O)OC[C@H]1O[C@@H](n2ccc(NC(=O)OCc3ccccc3)nc2=O)C(F)(F)[C@@H]1O [Compound D3, 1,5-di-[4-N-(benzyloxycarbonyl)-2′-deoxy-2′,2′-difluoro-cytidine]glutarate]","Relative tumor proliferation rate, minimum",[1]; [3],3.41%
same,"Tumor inhibition rate, maximum",[1]; [3],98.54%
same,Relative tumor proliferation rate (T/C %),[1]; Day 0,0.00%
same,Relative tumor volume (RTV),[1]; Day 0,1.00
same,Tumor growth inhibition rate (TGI %),[1]; Day 0,0.00%
same,Tumor volume of HCT-116 human colon cancer xenografts,[1]; Day 0,38.77 ± 4.33** mm^3
same,Relative tumor proliferation rate (T/C %),[1]; Day 1,60.98%
same,Relative tumor volume (RTV),[1]; Day 1,0.98 ± 0.12
same,Tumor growth inhibition rate (TGI %),[1]; Day 1,79.83%
same,Tumor volume of HCT-116 human colon cancer xenografts,[1]; Day 1,36.40 ± 3.98** mm^3
same,Relative tumor proliferation rate (T/C %),[1]; Day 2,49.58%
same,Relative tumor volume (RTV),[1]; Day 2,0.98 ± 0.12
same,Tumor growth inhibition rate (TGI %),[1]; Day 2,83.59%
same,Tumor volume of HCT-116 human colon cancer xenografts,[1]; Day 2,36.40 ± 3.98** mm^3
same,Relative tumor proliferation rate (T/C %),[1]; Day 4,23.26%
same,Relative tumor volume (RTV),[1]; Day 4,0.65 ± 0.10
same,Tumor growth inhibition rate (TGI %),[1]; Day 4,92.26%
same,Tumor volume of HCT-116 human colon cancer xenografts,[1]; Day 4,23.00 ± 3.08** mm^3
same,Relative tumor proliferation rate (T/C %),[1]; Day 7,6.76%
same,Relative tumor volume (RTV),[1]; Day 7,0.34 ± 0.06
same,Tumor growth inhibition rate (TGI %),[1]; Day 7,97.08%
same,Tumor volume of HCT-116 human colon cancer xenografts,[1]; Day 7,12.62 ± 3.10** mm^3
same,Relative tumor proliferation rate (T/C %),[1]; Day 9,4.71%
same,Relative tumor volume (RTV),[1]; Day 9,0.32 ± 0.05
same,Tumor growth inhibition rate (TGI %),[1]; Day 9,97.86%
same,Tumor volume of HCT-116 human colon cancer xenografts,[1]; Day 9,12.62 ± 3.10** mm^3
same,Relative tumor proliferation rate (T/C %),[1]; Day 11,3.41%
same,Relative tumor volume (RTV),[1]; Day 11,0.37 ± 0.09
same,Tumor growth inhibition rate (TGI %),[1]; Day 11,98.54%
same,Tumor volume of HCT-116 human colon cancer xenografts,[1]; Day 11,14.28 ± 3.69** mm^3
same,Relative tumor proliferation rate (T/C %),[1]; Day 14,5.78%
same,Relative tumor volume (RTV),[1]; Day 14,1.00 ± 0.00
same,Tumor growth inhibition rate (TGI %),[1]; Day 14,97.43%
same,Tumor volume of HCT-116 human colon cancer xenografts,[1]; Day 14,36.98 ± 4.82** mm^3
same,Relative tumor proliferation rate (T/C %),[1]; Day 16,10.49%
same,Relative tumor volume (RTV),[1]; Day 16,2.17 ± 0.14
same,Tumor growth inhibition rate (TGI %),[1]; Day 16,95.58%
same,Tumor volume of HCT-116 human colon cancer xenografts,[1]; Day 16,80.10 ± 11.07** mm^3
same,Relative tumor proliferation rate (T/C %),[1]; Day 18,16.55%
same,Relative tumor volume (RTV),[1]; Day 18,3.16 ± 0.39
same,Tumor growth inhibition rate (TGI %),[1]; Day 18,93.97%
same,Tumor volume of HCT-116 human colon cancer xenografts,[1]; Day 18,120.40 ± 23.44** mm^3
same,Relative tumor proliferation rate (T/C %),[1]; Day 21,23.70%
same,Relative tumor volume (RTV),[1]; Day 21,5.55 ± 0.66
same,Tumor growth inhibition rate (TGI %),[1]; Day 21,91.65%
same,Tumor volume of HCT-116 human colon cancer xenografts,[1]; Day 21,204.05 ± 36.25 mm^3
same,Relative tumor proliferation rate (T/C %),[1]; Day 23,31.41%
same,Relative tumor volume (RTV),[1]; Day 23,6.21 ± 0.61
same,Tumor growth inhibition rate (TGI %),[1]; Day 23,90.30%
same,Tumor volume of HCT-116 human colon cancer xenografts,[1]; Day 23,229.06 ± 36.15 mm^3
same,Relative tumor proliferation rate (T/C %),[1]; Day 25,33.40%
same,Relative tumor volume (RTV),[1]; Day 25,7.22 ± 0.53
same,Tumor growth inhibition rate (TGI %),[1]; Day 25,89.70%
same,Tumor volume of HCT-116 human colon cancer xenografts,[1]; Day 25,266.11 ± 39.63 mm^3
same,Relative tumor proliferation rate (T/C %),[1]; Day 28,43.93%
same,Relative tumor volume (RTV),[1]; Day 28,9.28 ± 0.73
same,Tumor growth inhibition rate (TGI %),[1]; Day 28,87.09%
same,Tumor volume of HCT-116 human colon cancer xenografts,[1]; Day 28,347.17 ± 60.84 mm^3
same,Relative tumor proliferation rate (T/C %),[1]; Day 30,52.09%
same,Relative tumor volume (RTV),[1]; Day 30,12.93 ± 0.90
same,Tumor growth inhibition rate (TGI %),[1]; Day 30,82.93%
same,Tumor volume of HCT-116 human colon cancer xenografts,[1]; Day 30,479.01 ± 75.54 mm^3
same,Inhibition of growth of HCT-116 human colon cancer xenografts (in words),"[1]; single IP injection, 300-400 mg/kg",higher tumor inhibition rates
same,Average rate of weight change of the animals,[2]; Day 0,0.00%
same,Average weight of the animals,[2]; Day 0,19.95 ± 0.09 g
same,Average rate of weight change of the animals,[2]; Day 1,−3.59 ± 0.66%
same,Average weight of the animals,[2]; Day 1,19.23 ± 0.31 g
same,Average rate of weight change of the animals,[2]; Day 2,−11.25 ± 0.96 %
same,Average weight of the animals,[2]; Day 2,17.70 ± 0.26 g
same,Average rate of weight change of the animals,[2]; Day 4,−8.10 ± 2.84%
same,Average weight of the animals,[2]; Day 4,18.24 ± 0.58 g
same,Average rate of weight change of the animals,[2]; Day 7,−1.68 ± 2.50%
same,Average weight of the animals,[2]; Day 7,19.51 ± 0.48 g
same,Average rate of weight change of the animals,[2]; Day 9,4.50 ± 1.93 %
same,Average weight of the animals,[2]; Day 9,20.74 ± 0.38 g
same,Average rate of weight change of the animals,[2]; Day 11,6.38 ± 1.68 %
same,Average weight of the animals,[2]; Day 11,21.12 ± 0.41 g
same,Average rate of weight change of the animals,[2]; Day 14,7.12 ± 1.19 %
same,Average weight of the animals,[2]; Day 14,21.26 ± 0.21 g
same,Average rate of weight change of the animals,[2]; Day 16,10.78 ± 0.88 %
same,Average weight of the animals,[2]; Day 16,22.00 ± 0.40 g
same,Average rate of weight change of the animals,[2]; Day 18,13.71 ± 0.63 %
same,Average weight of the animals,[2]; Day 18,22.58 ± 0.38 g
same,Average rate of weight change of the animals,[2]; Day 21,10.72 ± 1.6 %
same,Average weight of the animals,[2]; Day 21,21.98 ± 0.41 g
same,Average rate of weight change of the animals,[2]; Day 23,13.08 ± 2.31 %
same,Average weight of the animals,[2]; Day 23,22.44 ± 0.41 g
same,Average rate of weight change of the animals,[2]; Day 25,13.34 ± 2.34 %
same,Average weight of the animals,[2]; Day 25,22.50 ± 0.53 g
same,Average rate of weight change of the animals,[2]; Day 28,11.44 ± 2.29 %
same,Average weight of the animals,[2]; Day 28,22.12 ± 0.48 g
same,Average rate of weight change of the animals,[2]; Day 30,15.37 ± 2.93%
same,Average weight of the animals,[2]; Day 30,22.90 ± 0.60 g
same,Toxicity in tumor-bearing mice (in words),"[2]; single IP injection, D2 400 mg/kg, judged from body weight versus control",no toxicity
